This is an account of results in US20110045102A1, “Cancer chemotherapy compositions comprising PI3K pathway modulators and triptolide” (priority 2005, published 2011).

The test system of series [1] is OCC1-SEAP-12 ovarian cancer cells. Format: in vivo. The method, then:
Athymic nude mice were obtained and inoculated intraperitoneally with OCC1-SEAP-12 cells as described above in Examples I and II. Animals received injections of either vehicle control (PBS containing 25% DMSO), or carboplatin (60 mg/kg) alone, or in combination with LY294002 (50 mg/kg) every other day for 6 days. Blood samples were collected into capillary tubes from saphenous vein lancings at regular intervals during and following treatments. Capillary tubes were centrifuged, and the plasma samples were frozen (−20° C.), until the time of SEAP assay. The Washington State University Animal Care and Use Committee approved all procedures.
Blood plasma and cell culture medium samples were assayed for SEAP activity using the Great EscAPe SEAP fluorescence detection kit (Clontech Laboratories, Palo Alto, Calif.) as described above in Examples I and II. Blood plasma samples were diluted 1:100 prior to the assay to bring values within the linear range of the standard curve. The intraassay and interassay coefficients of variation were 2.5% and 18.8%, respectively.

Series [2] has the same test system. Put plainly: Cell survival by DNA content of culture wells (Example III). Type of series: cell-based, human. Here is the method:
Cell survival was assessed as cell number remaining in culture following exposure to treatments. The DNA content of individual culture wells was used as an indication of cell number. Cells plated in 24 well culture plates were allowed to approach confluence (80%) in Ham's F-12 medium plus 10% BCS. […] Media aliquots were taken when appropriate for SEAP analysis. The DNA was measured fluorometrically as previously described (Nilsson […], Ligon […]. An in vivo mouse reporter gene (human secreted alkaline phosphatase) model to monitor ovarian tumor growth and response to therapeutics. Cancer Chemother Pharmacol 2002; 49(2):93-100). Briefly, the fluorescence of aliquots of sonicated cell suspensions into which SYBR Green I fluorescent dye (Molecular Probes, Eugene Oreg.) had been incorporated, was measured.

A further series relates to caspase 3. The series is described as follows: Western blot for active caspase 3 (Example III). The settings on record: LY294002 10 μM, carboplatin 50 μg/ml. Type of series: cell-based, human. The method, then: The OCC1-SEAP-12 cells were grown to 80% confluence. Cultures were incubated in DMEM plus 0.1% bovine serum albumin (BSA) and 0.1% BCS to which either vehicle control, carboplatin (0-50 μg/ml), LY294002 (0-20 μM) or combinations of these treatments. Following 24, 48 or 72 hr cells were lysed with sample buffer (62.5 mM Tris-HCl, pH 6.8, 2% SDS, 5% glycerol, […], 0.5% β-mercaptoethanol). Total cell lysates were subjected to SDS polyacrylamide gel electrophoresis 9 page) and transferred to PVDF membranes (Millipore, Bedford, Mass.). Membranes were immunoblotted with antibodies to both the phosphorylated and non-phosphorylated forms of […] (Cell Signaling Technology, Beverly, Mass.), or alternatively, with antibodies to cleaved and full length caspase-3 (Cell Signaling Technology, Beverly, Mass.).
In general terms: Immunoblotting shows a protein as a band on a membrane.

Series [3] has as its system OCC1-SEAP-12 ovarian cancer cells. The settings on record: LY294002 alone (Westfall and Skinner 2005); cited from earlier work.
In the next series the test system is OCC1-SEAP-12 cells. The series is described as follows: Growth assay, [3H] thymidine incorporation (Example III). Format: cell-based, human. The settings on record: LY294002, 18h treatment. The method, then: Cell proliferation was analyzed by determining the amount of [^3H] thymidine incorporation Into newly synthesized DNA. The OCC1-SEAP-12 cells were plated in 24 well plates in Ham's F-12 medium plus 10% BCS and allowed to reach 50 to 70% confluence. Following a 48 hr serum starvation, the culture medium was changed to Dulbecco's Modified Eagle Medium (DMEM) plus 0.1% BSA and 0.1% BCS containing either vehicle control or carboplatin (0-100 μg/ml) alone, or in combination with LY294002 (0-20 μM). Treatments were removed after 18h and cells were incubated for 4 hr in medium containing 5 μCi/ml of [^3H] thymidine. Medium was removed and cells were disrupted by sonication in phosphate buffered saline (PBS). An aliquot of the sonicated solution of PBS was loaded onto a DEAE filtration plate (Millipore, Bedford, Mass.), and individual filters with bound DNA were collected for scintillation counting. Data was normalized to total DNA per well and was determined by a SYBR green fluorescent assay (Nilsson E E, Westfall S D, McDonald C, Ligon T, Sadler-Riggleman I, Skinner M K. An in vivo mouse reporter gene (human secreted alkaline phosphatase) model to monitor ovarian tumor growth and response to therapeutics. Cancer Chemother Pharmacol 2002; 49(2):93-100).
For orientation: Incorporation of labelled thymidine or its analogues reports DNA synthesis.

The subject of a further series is Akt. Put plainly: Western blot for Akt phosphorylation (Example III). Type of series: cell-based, human. The following applies: 6 hr and 24 hr; LY294002 10 (FIG. 18 legend: mM), carboplatin 50. Here is the method:
The OCC1-SEAP-12 cells were grown to 80% confluence. […] […] Total cell lysates were subjected to SDS polyacrylamide gel electrophoresis 9 page) and transferred to PVDF membranes (Millipore, Bedford, Mass.). Membranes were immunoblotted with antibodies to both the phosphorylated and non-phosphorylated forms of […] (Cell Signaling Technology, Beverly, Mass.), or alternatively, with antibodies to cleaved and full length caspase-3 (Cell Signaling Technology, Beverly, Mass.).

The conditions of series [4]: TPL 0.15 mg/kg, nude mice; cited from earlier work.
For the next series, the system named is OCC1-SEAP tumor. The series is described as follows: Nude mouse tumor model, intraperitoneal OCC1-SEAP cells, plasma SEAP (Example II). Format: in vivo. An excerpt: Athymic nude mice (NCR Nu/Nu) were either purchased from Taconic (Germantown, N.Y.) or bred in-house at Washington State University, Pullman, Wash. The OCC1-SEAP cells were collected in Hank's balanced salt solution and counted prior to injection. Treatments were initiated 7 to 10 days following an intraperitoneal inoculation of mice with 1×10^7 OCC1-SEAP cells, as described above, in Example I.
Stock solutions of carboplatin (paraplatin; Bristol-Myers Squibb, Princeton, N.J.) and TPL (Calbiochem, CA), were prepared in sterile filtered PBS and DMSO, respectively. Animals received intraperitoneal injections of either vehicle controlled (PBS containing 4% DMSO), or carboplatin (60 mg/kg), alone, or in combination with TPL (0-1.0 mg/kg), every other day for 5 days. Alternatively, TPL (0.15 mg/kg) was injected every day for 10 days. For these experiments, carboplatin was administered under the same schedule of every other day for 5 days. Some mice were also treated with 40 mg/kg of LY294002 every other day for 5 days, with an intraperitoneal injection in the presence of TPL and carboplatin. Blood samples were collected into capillary tubes from saphenous vein lancings at regular intervals during and following treatments. The capillary tubes were centrifuged and the plasma samples were frozen at −20° C., until the time of SEAP assay. The Washington State University Animal Care and Use Committee approved all procedures.
Blood plasma and cell culture medium samples were assayed for SEAP activity using the Great EscAPe SEAP fluorescence detection kit (Clontech Laboratories, Palo Alto, Calif.), as described above in Example I. Blood plasma samples were diluted 1:100, prior to the assay to bring values within the linear range of the standard curve. The intraassay and interassay coefficients of variation were 2.5% and 18.8%, respectively. In the case of the experiments in which mice were treated with a combination of TPL, LY294002 and carboplatin, there was some variation in the extent of tumor growth in the control mice. In order to better compare response to treatment across experiments, the SEAP assay data between experiments were normalized by dividing each data point by the overall mean of all SEAP measurements from that experiment and up, through day 18. The normalized data then reflect the relative tumor burden of each mouse, compared to others in the experimental group, and can be combined across experiments.

The test system of series [5] is OCC1-SEAP ovarian cancer cells. The series is described as follows: Cell survival by DNA content of culture wells (Example II). Type of series: cell-based, human. The settings on record: 48 hours; triptolide 100 ng/ml, carboplatin 50 (FIG. 8 legend: mg/ml). Here is the method:
Cell survival was assessed as the number of cells remaining in culture, following exposure to treatments. The DNA content of individual culture wells was used as an indication of cell number. Cells plated in 24 well culture plates were allowed to approach confluence (80%) in Ham's F-12 medium plus 10% BCS. Cultures were then incubated in DMEM, plus 0.1% BSA and 0.1% BCS, in the presence of vehicle control, carboplatin (0-100 μg/ml), Triptolide (100 ng/ml) or a combination of these for 24 to 96 hrs. Media aliquots were taken when appropriate for SEAP analysis. The DNA was measured fluorometrically, as described above, in Example I. Briefly, the fluorescence of an aliquot of sonicated cell suspension, into which SYBR Green I fluorescent dye (Molecular Probes, Eugene, Oreg.), had been incorporated was measured.

The next series has as its system solid tumor types. The following applies: TPL 0.15 mg/kg; cited from earlier work.
The next series deals with OCC1-SEAP cell cultures. Put plainly: DNA fragmentation (laddering) on agarose gel (Example II). Format: cell-based, human. The following applies: 48 hr; TPL 100 ng/ml, carboplatin 50 μg/ml. The method, then: Following 48 h to 72 h treatment incubations, cells were suspended into culture medium and pelleted in tubes. DNA was isolated from collected cells using a Puregene™ DNA isolation kit (Gentra Systems, Minneapolis, Minn.). The quantity and purity of nucleic acid preparations were estimated by measuring the absorbance of each sample (A260/A280). DNA preparations (10 μg/well) were loaded onto 1.2% agarose gels and visualized with ethidium bromide stain.

A further series relates to breast cancer xenografts. The settings on record: TPL 0.5 mg/kg; cited from earlier work.
A further series relates to caspase-3. Put plainly: Western blot for active caspase-3 (Example II). The following applies: 24 h; TPL 100 ng/ml, carboplatin 50. Type of series: cell-based, human.
Series [6] concerns OCC1-SEAP intraperitoneal tumors. Put plainly: Nude mouse intraperitoneal OCC1-SEAP tumor model, plasma SEAP (Example I). Type of series: in vivo, athymic nude mice. The method, then: Athymic nude mice (Nu/Nu; Charles River Laboratories, Wilmington, Mass.) weighing about 25 g were used for in vivo studies.
Three mice were injected intraperitoneally with 1×10^7 OCC1-SEAP-12 cells. The experimental treatments began after 1 week. […] Alternatively, four mice with well-developed tumors (2-4 weeks after injection) were treated with a high dose of carboplatin (60 mg/kg) three times over a period of 4 days. After death all visible intraperitoneal tumors were dissected out and weighed.
Blood samples were collected from saphenous vein lancings three times per week into heparinized capillary tubes. The capillary tubes were centrifuged and the plasma samples were frozen at −20° C. until the time of SEAP assay. Blood samples were taken for SEAP assay from the mice within 24 hours of death 2-3 weeks after intraperitoneal injection of OCC1-SEAP cells.
Blood plasma and cell culture medium samples were assayed for SEAP activity using the Great EscAPe SEAP fluorescence detection kit (Clontech Laboratories, Palo Alto, Calif.). SEAP is secreted at a constant rate by transfected tumor cells and distributed throughout the body or into the culture medium. SEAP is heat stable, so any endogenous alkaline phosphatase activity in blood plasma is destroyed by heat treatment of the samples (65° C. for 30 minutes) during the assay. The SEAP enzyme in each sample acts on the substrate 4-methylumbelliferyl phosphate during a 1 hour incubation at room temperature to produce a fluorescent product with excitation and emission peaks at 360 and 449 nm, respectively. A fluorimeter is then used to measure SEAP activity. The intra-assay and inter-assay coefficients of variation were 2.5% and 18.8%, respectively. Blood plasma samples were diluted 1:100 prior to the assay to bring values within the linear range of the standard curve.

As for `O=c1cc(N2CCOCC2)oc2c(-c3ccccc3)cccc12` [LY294002, 2-(4-morpholinyl)-8-phenyl-4H-1-benzopyran-4-one], in series [1] (physical appearance of mice after treatment), the “abdominal swelling (FIG. 24)” value was “displayed abdominal swelling”. For the same compound, the “tumor size vs vehicle control (FIG. 23)” value in series [1] (single agents: LY294002 50 mg/kg, carboplatin 60 mg/kg) is recorded as “no significant difference”. For the same compound, the “reduction of cell number” value in series [2] (5 μM LY294002, 48 hr incubation) was determined as 22%; in [2] (10 μM LY294002, 48 hr incubation), 44%. Further, the “time at which active 17 kDa caspase 3 appears” value with caspase 3 was 72 h. Besides, the “effect on ovarian cancer tumor progression” value in series [3] is given as “negligible effects”. The “block of basal DNA synthesis” value in the series with OCC1-SEAP-12 cells amounted to 50%. Besides, the Akt phosphorylation result with Akt was “blocked basal levels”.
`CC(C)[C@]12O[C@H]1[C@@H]1O[C@]13[C@]1(O[C@H]1C[C@H]1C4=C(CC[C@@]13C)C(=O)OC4)[C@@H]2O` [TPL, Triptolide]: the “dose as share of the maximum tolerated dose” value in series [4] is reported as 60%. Moreover, in the series with OCC1-SEAP tumor (TPL 0.5 mg/kg ip every other day over 5 days), the toxicity result is given as “no apparent toxicity”. Further, the “mice expired within 24 hours” value in the series with OCC1-SEAP tumor (TPL 1.0 mg/kg intraperitoneal) is listed as 2 of 3. Further, the “SEAP values vs vehicle control” value in the series with OCC1-SEAP tumor (TPL 0.125, 0.25 or 0.5 mg/kg ip every other day over 5 days) is reported as “not significant differences”. For the same compound, the “tumor burden vs vehicle control (FIG. 11)” value with OCC1-SEAP tumor (high dose, short duration: TPL 0.5 mg/kg, carboplatin 60 mg/kg every other day for 5 days) is recorded as “no significant difference”. In addition, in the series on OCC1-SEAP tumor (low dose, long duration: TPL 0.15 mg/kg every day for 10 days, carboplatin 60 mg/kg every other day for 5 days), the “tumor burden as measured by SEAP levels vs vehicle control (FIG. 12)” value is on record as “no significant difference”. For the same compound, in [5], the “decrease in cell survival (μg DNA/ml) compared to control cultures” value is “approximately 40%”. In addition, the “inhibition of growth and metastasis of solid tumors” value in the series on solid tumor types is reported as “potent”. Further, the DNA laddering entry in the series on OCC1-SEAP cell cultures is “evident”. In addition, in the series on breast cancer xenografts, the toxicity of dose result is “lethal”. For the same compound, the “induction of active caspase-3” value in the series with caspase-3 is on record as “robust induction”.
Turning to `N.N.[Cl][Pt][Cl]` [cisplatin], the “tumor growth by plasma SEAP compared to vehicle controls” value in [6] (3 or 10 mg/kg cisplatin every 48-72 h over a 2-week period, intraperitoneal) was “decreased tumor growth”. Besides, the “difference in tumor growth between 3 and 10 mg/kg” value in series [6] (cisplatin 3 vs 10 mg/kg) is reported as “No difference”.
